# From PubChem BioAssay (NCI)
# “And” between values parts separate entries of the source, which are not always exact repeats. Identical values can stand only once.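 These data come from cells grown in 96-well plates and exposed to compound for 48 hours at five concentrations. GI50 marks 50% less growth. The concentration for full growth arrest is given as TGI.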
# Legend:
# Assay in all cases: DTP human tumour cell line panel, 48 h
# DU-145 prostate = tested on: DU-145 prostate
# EKVX NSCLC = tested on: EKVX NSCLC
# HCC-2998 colon = tested on: HCC-2998 colon
# HL-60(TB) leukemia = tested on: HL-60(TB) leukemia
# MCF7 breast = tested on: MCF7 breast
# MDA-MB-231 breast = tested on: MDA-MB-231 breast
# MDA-MB-435 = tested on: MDA-MB-435
# OVCAR-3 ovarian = tested on: OVCAR-3 ovarian
# SK-MEL-28 melanoma = tested on: SK-MEL-28 melanoma
# UACC-257 melanoma = tested on: UACC-257 melanoma
Compound,GI50 (DU-145 prostate),TGI (DU-145 prostate),GI50 (EKVX NSCLC) [µM],TGI (EKVX NSCLC),GI50 (HCC-2998 colon),TGI (HCC-2998 colon),GI50 (HL-60(TB) leukemia),TGI (HL-60(TB) leukemia),GI50 (MCF7 breast),TGI (MCF7 breast) [µM],GI50 (MDA-MB-231 breast),TGI (MDA-MB-231 breast),GI50 (MDA-MB-435),TGI (MDA-MB-435) [µM],GI50 (OVCAR-3 ovarian),TGI (OVCAR-3 ovarian),GI50 (SK-MEL-28 melanoma),TGI (SK-MEL-28 melanoma),GI50 (UACC-257 melanoma),TGI (UACC-257 melanoma)
O=C(C(=O)c1cc(Br)ccc1O)c1cc(Br)ccc1O,3.66 µM,18.5 µM,2.03,7.52 µM,4.75 µM,18.6 µM,2.2 µM,6.16 µM,7.34 µM,> 100,5.33 µM,23 µM,2.84 µM,9.25,2.84 µM,9.32 µM,8 µM,> 100 µM,2.21 µM,8.43 µM
CC1=C2[C@@H](CC1)[C@]1(C)O[C@@](C3CC3)(C[C@H]1OC(=O)CO)[C@H]2OC(=O)/C=C/c1ccccc1,16.9 µM,30.9 µM,11.5,25.1 µM,16.9 µM,33.2 µM,15.6 µM,42.6 µM,13 µM,31.3,18.3 µM,37.6 µM,16.1 µM,30.6,15.3 µM,29.2 µM,18.6 µM,36.3 µM,17.7 µM,32.9 µM
CNCc1ccc(-c2[nH]c3cc(F)cc4c3c2CCNC4=O)cc1,16 µM,32.3 µM,26.1,> 83.1 µM,16.5 µM,35.6 µM,20.9 µM,41.3 µM,8.9 µM,35.5,11.1 µM,33 µM,16.5 µM,36.1,19.9 µM,47.2 µM,15.6 µM,32 µM,17 µM,33.2 µM
CN(C)c1ccc(C2CC(C)(O)Oc3cc4c(cc32)OCO4)cc1 (stereo not given),,> 100 µM,,> 100 µM,,95.1 µM,,> 100 µM,,> 100,,> 100 µM,,74.1,,> 100 µM,,> 100 µM,,> 100 µM
CCSc1ncc(Br)c(Sc2nc(N)nc3nc[nH]c23)n1,2.95 µM,60.9 µM,3.4,> 100 µM,2.78 µM,32.2 µM,19.8 µM,88.6 µM,3.04 µM,> 100,2.8 µM,> 100 µM,3.72 µM,> 100,2.55 µM,25 µM,46.9 µM,> 100 µM,12.4 µM,> 100 µM
Cc1nc2c(Br)cc(Br)cc2c(=O)n1-c1ccccc1NC1OCC(O)C(O)C1O (stereo not given),44.9 µM and 19.2 µM,> 100 µM and 46.3 µM,,> 100 µM,,> 100 µM,18.6 µM and 7.03 µM,43.4 µM and 15.7 µM,28.4 µM and 3.7 µM,> 100,,> 100 µM,,> 100,,69.3 µM and 60.9 µM,,> 100 µM,,> 100 µM and 99.3 µM
Nc1nc(=S)c2[nH]cnc2[nH]1,0.477 µM and 0.538 µM,> 32.1 µM and 144 µM and 28.7 µM,,> 100 µM and 143 µM and > 250 µM,0.382 µM and 1.19 µM,6.93 µM and 16.7 µM and 4.98 µM,0.894 µM,9.38 µM and 17.5 µM and 2.37 µM,0.325 µM and 0.547 µM and 1.02 µM,,0.323 µM and 1.36 µM,> 100 µM and 150 µM and > 250 µM,0.349 µM and 0.552 µM,,0.446 µM and 1.44 µM and 1.1 µM,6.32 µM and 7.68 µM and 9.64 µM,1.94 µM and 6.07 µM,28.8 µM and 162 µM,0.708 µM and 5.94 µM,> 70.3 µM and 110 µM and > 250 µM
C#Cc1cccc(NC(=O)C2CCCN(C(=O)CCl)C2)c1 (stereo not given),> 82.5 µM,> 82.5 µM,> 82.5,> 82.5 µM,> 82.5 µM,> 82.5 µM,> 82.5 µM,> 82.5 µM,> 82.5 µM,> 82.5,> 82.5 µM,> 82.5 µM,69.8 µM,> 82.5,> 82.5 µM,> 82.5 µM,> 82.5 µM,> 82.5 µM,> 82.5 µM,> 82.5 µM
CCCCCCCCCCCCOC1C(C(CC(=O)N2CCN(Cc3ccc4c(c3)OCO4)CC2)NS(=O)(=O)c2cc(Cl)cc(Cl)c2)OC2OC(C)(C)OC21 (stereo not given),25.5 µM,> 100 µM,19.1,> 100 µM,5.54 µM,> 51.4 µM,10.8 µM,78.3 µM,4.45 µM,36.6,18.1 µM,> 89.8 µM,48 µM,> 100,20.3 µM,> 100 µM,> 100 µM,> 100 µM,59.1 µM,> 100 µM
COc1cccc(C2C(C#N)=C(N)Oc3cc4c(cc32)OCO4)c1 (stereo not given),0.0845 µM,2.78 µM,0.28,58.8 µM,0.0813 µM,2.52 µM,0.029 µM,0.279 µM,0.0351 µM,18.1,0.695 µM,> 52.1 µM,0.0162 µM,0.0829,0.0264 µM,0.0661 µM,0.0813 µM,32.6 µM,0.0471 µM,28.1 µM
COc1ccc(/C(C)=C(\c2ccc(Cl)cc2)c2ccc(OCCN3CCCCCC3)cc2)cc1F,4.47 µM,15.6 µM,5.54,> 16.7 µM,3.81 µM,9.38 µM,3.25 µM,7.11 µM,3.59 µM,11.1,3.29 µM,6.11 µM,2.78 µM,5.77,2.98 µM,5.89 µM,2.54 µM,4.9 µM,3.4 µM,7.87 µM
COc1cc(OC)cc(-c2ccc(-c3ccc(C(=N)N)cn3)s2)c1,1.79 µM,3.22 µM,2.58,7.17 µM,1.84 µM,3.48 µM,2.06 µM,4.48 µM,1.77 µM,3.6,1.79 µM,3.51 µM,1.73 µM,3.15,1.77 µM,3.2 µM,1.84 µM,3.43 µM,2.29 µM,4.49 µM
CC1=C(CNO)C2=C(C)C3(CC3)[C@@](C)(O)C(=O)C2=C1,0.375 µM,5.5 µM,2.22,5.98 µM,1.5 µM,3.76 µM,2.77 µM,30.7 µM,0.763 µM,6.73,2.03 µM,7.14 µM,11.4 µM,39,1.49 µM,6.26 µM,2.37 µM,6.05 µM,2.78 µM,7.64 µM
O=C(N/N=C/c1ccc(F)cc1)c1ccc(C(F)(F)F)nc1Nc1cccc(C(F)(F)F)c1,0.444 µM,1.88 µM,0.713,4.64 µM,0.902 µM,4.96 µM,0.827 µM,3.72 µM,1.47 µM,5.78,1.23 µM,4.82 µM,2.66 µM,10,0.254 µM,0.713 µM,1.79 µM,7.92 µM,2.23 µM,6.72 µM
NC(N)=N/N=C(/c1ccccc1)c1ccccc1F,3.56 µM,16.6 µM,6.89,53 µM,1.39 µM,4.73 µM,2.96 µM,> 100 µM,0.327 µM,13.3,3.34 µM,11.8 µM,0.347 µM,3.81,2.1 µM,7.55 µM,4.69 µM,21.4 µM,15.8 µM,38.1 µM
COc1ccc(/C=C\c2cc(OC)c(OC)c(OC)c2)c(NS(=O)(=O)c2ccc(C(C)(C)C)cc2)c1O,0.395 µM,12.5 µM,0.706,26.3 µM,1.5 µM,15.3 µM,0.039 µM,2.34 µM,0.133 µM,15.7,0.358 µM,16.9 µM,0.0427 µM,0.735,0.225 µM,12 µM,4.91 µM,22.2 µM,13.2 µM,32.1 µM
O=c1[nH]c2ccc([N+](=O)[O-])c(Cl)c2c2ccccc12,,11.7 µM,,19.9 µM,,23.6 µM,,16.6 µM,,2.23,,23.6 µM,,7.6,,17.6 µM,,25.8 µM,,15.6 µM
CCN1CCN(c2nc(NNC(=O)c3ccccc3)nc(N3CCN(C(c4ccccc4)c4ccccc4)CC3)n2)CC1,8.11 µM,26.5 µM,10.3,30 µM,1.95 µM,4.08 µM,1.76 µM,3.99 µM,1.39 µM,3.46,2.7 µM,7.55 µM,1.94 µM,3.78,3.43 µM,13.2 µM,1.8 µM,3.49 µM,1.9 µM,4.25 µM
COc1ccc(Cc2nc3cc(OC)c(OC)cc3c(=O)[nH]2)cc1,9.38 µM,> 67 µM,17.3,> 92.5 µM,2.98 µM,17.1 µM,1.78 µM,4.8 µM,5.32 µM,> 47.5,9.83 µM,> 100 µM,5.15 µM,57.1,12.5 µM,> 66.1 µM,11.5 µM,65.1 µM,6.42 µM,32.1 µM
